# Assays:
# [1] = Accelerated stability test (forced degradation), 14 days at 40° C; details: both buffers at pH=7.0, FIG. 5
# Procedure: Buffers 1-7 of Table 1 were screened for stability at the concentrations shown in the Table using an accelerated stability test. The buffer compositions were maintained for 14 days at 40° C.
# [2] = Sonication processing time to achieve a clear solution of CRX-601 buffered formulations; assay type: physicochemical
# Procedure: CRX-601 was formulated in the 10 mM HEPES buffered at pH=7.0 at 2 mg/mL target concentration by weighing 3.99 mg of CRX-601 and adding 1.877 mL of 10 mM HEPES followed by ultrasonication in a water bath sonicator. After 25 minutes the solution was visibly clear, but the sonication was continued since the other CRX-601 formulations with the other buffers employed herein had not yet achieved similar visual appearance. This was done because the goal was to subject each CRX-601 buffered formulation to the same amount of processing energy.
# CRX-601 was formulated in the 10 mM HEPES buffered at pH=8.0 at 2 mg/mL target concentration by weighing 3.99 mg of CRX-601 and adding 1.877 mL of 10 mM HEPES followed by ultrasonication in a water bath sonicator. After 25 minutes the solution was visibly clear, but the sonication was continued since the other CRX-601 formulations with the other buffers employed herein had not yet achieved similar visual appearance. This was done because the goal was to subject each CRX-601 buffered formulation to the same amount of processing energy.
# Each of the buffer solutions was then sonciated to reduce the particle size to allow for sterile filtration.
SMILES,stability of the AGP in HEPES as compared against phosphate buffer [1],"sonication time until solution visibly clear ([2]; 2 mg/mL in 10 mM HEPES at pH=7.0, water bath sonicator)","sonication time until solution visibly clear ([2]; 2 mg/mL in 10 mM HEPES at pH=8.0, water bath sonicator)"
CCCCCCCCCCC[C@H](CC(=O)N[C@H]1[C@H](OC[C@H](NC(=O)C[C@@H](CCCCCCCCCCC)OCCCCCCCCCC)C(=O)O)O[C@H](CO)[C@@H](OP(=O)(O)O)[C@@H]1OC(=O)C[C@@H](CCCCCCCCCCC)OCCCCCCCCCC)OCCCCCCCCCC [CRX-601],enhanced stability,25 min,25 min
CCCCCCCCCCC[C@H](CC(=O)N[C@H]1[C@H](OC[C@H](NC(=O)C[C@@H](CCCCCCCCCCC)OC(=O)CCCCCCCCC)C(=O)O)O[C@H](CO)[C@@H](OP(=O)(O)O)[C@@H]1OC(=O)C[C@@H](CCCCCCCCCCC)OC(=O)CCCCCCCCC)OC(=O)CCCCCCCCC [CRX-527],enhanced stability,,

# — US9827260B2, “Composition for buffered aminoalkyl glucosaminide phosphate compounds and its use for enhancing an immune response” (GlaxoSmithKline Biologicals s.a., priority 2013, dated 2017)
